Measurements: patent US20250134869A1, “Pyrrolo[2,3-d]pyrimidinyl, Pyrrolo[2,3-b]pyrazinyl and Pyrrolo[2,3-d]pyridinyl Acryla-mides” (Pfizer Inc, priority 2021, published 2025)
Where two headings read alike, the source gives them in different places.

Biological target: JAK3 enzyme (Homo sapiens (Human), UniProt P52333)
Assay: JAK Caliper Enzyme Assay at 4 μM or 1 mM ATP
Assay type: biochemical
Method: JAK Caliper Enzyme Assay at […] or 1 mM ATP
Test article was solubilized in dimethyl sulfoxide (DMSO) to a stock concentration of 30 mM. An 11-point half log dilution series was created in DMSO with a top concentration of 600 μM. […] The compound plates were diluted 1 to 60 resulting in a top final assay compound concentration of 10 μM and a 2% DMSO concentration.
Test article and assay controls were added to a 384-well plate. Reaction mixtures contained 20 mM HEPES, pH 7.4, 10 mM magnesium chloride, 0.01% bovine serum albumin (BSA), 0.0005% Tween […] or 1 mM ATP and […] peptide substrate. […] The assays were initiated by the addition 1 nM JAK3 enzyme and were incubated at room temperature 75 minutes for JAK3. Enzyme concentrations and incubation times were optimized for each new enzyme preps and were modified slightly over time to ensure 20%-30% phosphorylation. The assays were stopped with a final concentration of 10 mM EDTA, 0.1% Coating Reagent and 100 mM HEPES, pH=7.4. The assay plates were placed on a Caliper Life Science Lab Chip 3000 (LC3000) instrument, and each well was sampled using appropriate separation conditions to measure the unphosphorylated and phosphorylated peptide.

[1] = read-out: JAK3 (4 μM ATP) IC50, 4 μM ATP
[2] = read-out: JAK3 (1 mM ATP) IC50, 1 mM ATP

Sequence of JAK3 enzyme (P52333 whole entry, species assumed): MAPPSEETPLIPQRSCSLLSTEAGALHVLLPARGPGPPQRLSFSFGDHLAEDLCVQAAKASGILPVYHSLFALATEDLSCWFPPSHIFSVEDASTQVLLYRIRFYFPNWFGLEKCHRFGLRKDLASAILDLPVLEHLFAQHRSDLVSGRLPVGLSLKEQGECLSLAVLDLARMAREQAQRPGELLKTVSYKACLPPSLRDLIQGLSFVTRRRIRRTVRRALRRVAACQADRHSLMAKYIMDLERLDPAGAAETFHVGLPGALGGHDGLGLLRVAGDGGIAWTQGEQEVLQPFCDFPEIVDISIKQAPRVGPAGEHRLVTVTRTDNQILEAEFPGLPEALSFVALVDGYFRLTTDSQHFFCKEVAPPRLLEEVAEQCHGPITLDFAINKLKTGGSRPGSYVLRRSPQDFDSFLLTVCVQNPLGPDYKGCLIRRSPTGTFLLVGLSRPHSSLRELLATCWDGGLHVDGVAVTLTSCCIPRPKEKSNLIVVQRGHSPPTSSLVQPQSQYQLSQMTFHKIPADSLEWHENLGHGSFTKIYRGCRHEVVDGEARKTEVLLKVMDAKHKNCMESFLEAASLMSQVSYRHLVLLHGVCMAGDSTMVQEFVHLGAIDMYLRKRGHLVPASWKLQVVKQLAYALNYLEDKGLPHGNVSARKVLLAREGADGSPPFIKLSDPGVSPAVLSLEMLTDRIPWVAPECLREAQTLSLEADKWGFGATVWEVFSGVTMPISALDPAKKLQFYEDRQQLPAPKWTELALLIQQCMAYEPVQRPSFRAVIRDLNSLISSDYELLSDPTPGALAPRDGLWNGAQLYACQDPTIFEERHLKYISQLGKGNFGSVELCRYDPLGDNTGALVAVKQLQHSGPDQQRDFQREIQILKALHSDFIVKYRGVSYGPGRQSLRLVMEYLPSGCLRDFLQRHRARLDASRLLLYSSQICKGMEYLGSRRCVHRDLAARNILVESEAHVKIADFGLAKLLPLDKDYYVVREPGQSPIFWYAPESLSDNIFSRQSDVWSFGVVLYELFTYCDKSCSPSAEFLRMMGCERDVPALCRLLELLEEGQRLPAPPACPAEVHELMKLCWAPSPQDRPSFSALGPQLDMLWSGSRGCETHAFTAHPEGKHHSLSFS

IC50 [1] | IC50 [2] | SMILES
0.0002 µM | 0.0082 µM | C=CC(=O)N1CCC(Nc2cnc3[nH]cc(C(=O)N[C@H]4CC[C@H](F)C4)c3n2)CC1 [Example 247, 2-[(1-acryloylpiperidin-4-yl)amino]-N-[(1S,3S)-3-fluorocyclopentyl]-5H-pyrrolo[2,3-b]pyrazine-7-carboxamide]
0.0002 µM | 0.0073 µM | C=CC(=O)N1CCC(Nc2cnc3[nH]cc(C(=O)N[C@H]4CC[C@@H](F)C4)c3n2)CC1 [Example 244, 2-[(1-acryloylpiperidin-4-yl)amino]-N-[(1S,3R)-3-fluorocyclopentyl]-5H-pyrrolo[2,3-b]pyrazine-7-carboxamide]
0.0491 µM |  | CN(C)C/C=C/C(=O)N1CCC[C@H](Nc2ncnc3[nH]ccc23)C1 [Example 106, (2E)-4-(dimethylamino)-1-[(3S)-3-(7H-pyrrolo[2,3-d]pyrimidin-4-ylamino)piperidin-1-yl]but-2-en-1-one]
> 10 µM |  | C=CC(=O)N1CCC[C@@H](Nc2ncnc3[nH]cc(C=C)c23)C1 [Example 40, 1-{(3R)-3-[(5-ethenyl-7H-pyrrolo[2,3-d]pyrimidin-4-yl)amino]piperidin-1-yl}prop-2-en-1-one]
0.0002 µM | 0.0342 µM | C=CC(=O)N1CCC(Nc2cnc3[nH]cc(-c4ccnc(F)c4)c3n2)CC1 [Example 211, 1-(4-{[7-(2-fluoropyridin-4-yl)-5H-pyrrolo[2,3-b]pyrazin-2-yl]amino}piperidin-1-yl)prop-2-en-1-one]
2.82 µM |  | C/C=C/C(=O)N1CCC[C@@H](Nc2ncnc3[nH]cc(CCOC)c23)C1 [Example 109, (2E)-1-[(3R)-3-{[5-(2-methoxyethyl)-7H-pyrrolo[2,3-d]pyrimidin-4-yl]amino}pipendin-1-yl]but-2-en-1-one]
0.0002 µM | 0.0078 µM | C=CC(=O)N1CCC(Nc2cnc3[nH]cc(C(=O)NC(C)C4CC4)c3n2)CC1 (stereo not shown) [Example 288, 2-[(1-acryloylpiperidin-4-yl)amino]-N-(1-cyclopropylethyl)-5H-pyrrolo[2,3-b]pyrazine-7-carboxamide]
0.0007 µM | 0.0568 µM | C=CC(=O)N1CCC[C@@H](Nc2ncnc3[nH]ccc23)C1 [Example 12, (R)-1-(3-((7H-Pyrrolo[2,3-d]pyrimidin-4-yl)amino)piperidin-1-yl)prop-2-en-1-one]
0.0042 µM | 0.346 µM | C=CC(=O)N1CCC(Nc2cnc3[nH]cc(C(=O)N4CCCC4)c3n2)CC1 [Example 287, 1-(4-{[7-(pyrrolidin-1-ylcarbonyl)-5H-pyrrolo[2,3-b]pyrazin-2-yl]amino}piperidin-1-yl)prop-2-en-1-one]
2.41 µM |  | C=CC(=O)NC1CCN(c2cnc3[nH]ccc3n2)C1 (stereo not shown) [Example 167, N-[1-(5H-pyrrolo[2,3-b]pyrazin-2-yl)pyrrolidin-3-yl]prop-2-enamide]
0.0045 µM | 0.592 µM | C=CC(=O)N1CCN(c2cnc3[nH]cc(C(=O)NC(C)C)c3n2)C(C)(C)C1 [Example 312, 2-(4-acryloyl-2,2-dimethylpiperazin-1-yl)-N-(propan-2-yl)-5H-pyrrolo[2,3-b]pyrazine-7-carboxamide]
0.0002 µM | 0.004 µM | C=CC(=O)N1CCC(Nc2cnc3[nH]cc(C(=O)NC4CCC4)c3n2)CC1 [Example 280, 2-[(1-acryloylpiperidin-4-yl)amino]-N-cyclobutyl-5H-pyrrolo[2,3-b]pyrazine-7-carboxamide]
> 10 µM |  | C=CC(=O)N1CCC[C@@H](Nc2ncnc3[nH]cc(CC(C)C)c23)C1 [Example 39, 1-[(3R)-3-{[5-(2-methylpropyl)-7H-pyrrolo[2,3-d]pyrimidin-4-yl]amino}piperidin-1-yl]prop-2-en-1-one]
0.0006 µM | 0.107 µM | C=CC(=O)N1CCN(c2cnc3[nH]cc(C(=O)NC(C)C)c3n2)CC1(C)C [Example 293, 2-(4-acryloyl-3,3-dimethylpiperazin-1-yl)-N-(propan-2-yl)-5H-pyrrolo[2,3-b]pyrazine-7-carboxamide]
0.0003 µM | 0.04 µM | C=CC(=O)N1C[C@H](C#N)C[C@@H](Nc2ncnc3[nH]ccc23)C1 [Example 6, (3R,5R)-5-((7H-pyrrolo[2,3-d]pyrimidin-4-yl)amino)-1-acryloylpiperidine-3-carbonitrile]
0.0004 µM | 0.0131 µM | C=CC(=O)N1CCC(Nc2cnc3[nH]cc(C(=O)NCCOC)c3n2)CC1 [Example 275, 2-[(1-acryloylpiperidin-4-yl)amino]-N-(2-methoxyethyl)-5H-pyrrolo[2,3-b]pyrazine-7-carboxamide]

IC50 [1] | IC50 [2] | SMILES
0.603 µM | > 10 µM | C=CC(=O)N1C[C@@H](Nc2ncnc3[nH]ccc23)[C@@H]2CC[C@H]1C2 [Example 126, 1-((1S,4S,5R)-4-(7H-pyrrolo[2,3-d]pyrimidin-4-ylamino)-2-azabicyclo[3.2.1]octan-2-yl)prop-2-en-1-one]
0.139 µM |  | C=CC(=O)N1CCC[C@@H](Nc2ncnc3[nH]cc(C(=O)NCC)c23)C1 [Example 144, 4-{[(3R)-1-acryloylpiperidin-3-yl]amino}-N-ethyl-7H-pyrrolo[2,3-d]pyrimidine-5-carboxamide]
0.265 µM | > 10 µM | C=CC(=O)N1C[C@H](Nc2ncnc3[nH]ccc23)CC[C@H]1CC [Example 124, 1-[(2R,5R)-2-Ethyl-5-(7H-pyrrolo[2,3-d]pyrimidin-4-ylamino)piperidin-1-yl]prop-2-en-1-one]
0.0003 µM | 0.0076 µM | C=CC(=O)N1CCC(Nc2cnc3[nH]cc(C(=O)NC4CCCC4)c3n2)CC1 [Example 283, 2-[(1-acryloylpiperidin-4-yl)amino]-N-cyclopentyl-5H-pyrrolo[2,3-b]pyrazine-7-carboxamide]
0.0091 µM | 0.672 µM | C=CC(=O)N1CCC[C@@H](Nc2nc(Nc3cccnc3)nc3[nH]ccc23)C1 [Example 63, 1-[(3R)-3-{[2-(Pyridin-3-ylamino)-7H-pyrrolo[2,3-d]pyrimidin-4-yl]amino}piperidin-1-yl]prop-2-en-1-one]
0.0005 µM | 0.0372 µM | C=CC(=O)N1CCC(Nc2cnc3[nH]cc(C(=O)N[C@@H](C(C)C)[C@H](O)C(F)(F)F)c3n2)CC1 [Example 252, 2-[(1-acryloylpiperidin-4-yl)amino]-N-[(2S,3S)-1,1,1-trifluoro-2-hydroxy-4-methylpentan-3-yl]-5H-pyrrolo[2,3-b]pyrazine-7-carboxamide]
0.0028 µM | 0.294 µM | C=CC(=O)N1CCC[C@@H](Nc2ncnc3[nH]cc(-c4ccc(C(=O)N(C)C)cc4)c23)C1 [Example 27, 4-(4-{[(3R)-1-acryloylpiperidin-3-yl]amino}-7H-pyrrolo[2,3-d]pyrimidin-5-yl)-N,N-dimethylbenzamide]
0.0015 µM | 0.138 µM | C=CC(=O)N1CC[C@@H](CNc2cnc3[nH]cc(C(=O)NC(C)C)c3n2)C1 [Example 191, 2-({[(3S)-1-acryloylpyrrolidin-3-yl]methyl}amino)-N-(propan-2-yl)-5H-pyrrolo[2,3-b]pyrazine-7-carboxamide]
0.0005 µM | 0.0406 µM | C=CC(=O)N1CCC(Nc2cnc3[nH]cc(C(=O)NCC4(O)CCC(F)(F)CC4)c3n2)CC1 [Example 252b, 2-[(1-acryloylpiperidin-4-yl)amino]-N-[(4,4-difluoro-1-hydroxycyclohexyl)methyl]-5H-pyrrolo[2,3-b]pyrazine-7-carboxamide]
1.61 µM |  | C=CC(=O)N1CC2(C1)CN(c1cnc3[nH]ccc3n1)C2 [Example 175, 1-[6-(5H-pyrrolo[2,3-b]pyrazin-2-yl)-2,6-diazaspiro[3.3]hept-2-yl]prop-2-en-1-one]
1.43 µM |  | C=C(C)C(=O)N1CCC[C@@H](Nc2ncnc3[nH]cc(CCOC)c23)C1 [Example 110, 1-[(3R)-3-{[5-(2-methoxyethyl)-7H-pyrrolo[2,3-d]pyrimidin-4-yl]amino}piperidin-1-yl]-2-methylprop-2-en-1-one]
0.0831 µM |  | C=C(C)C(=O)N1CCC[C@@H](Nc2ncnc3[nH]cc(Cc4ccc(O)cc4)c23)C1 [Example 139, 1-[(3R)-3-{[5-(4-hydroxybenzyl)-7H-pyrrolo[2,3-d]pyrimidin-4-yl]amino}piperidin-1-yl]-2-methylprop-2-en-1-one]
0.0005 µM | 0.0148 µM | C=CC(=O)N1CCC(Nc2cnc3[nH]cc(-c4cccnc4)c3n2)CC1 [Example 205, 1-(4-{[7-(pyridin-3-yl)-5H-pyrrolo[2,3-b]pyrazin-2-yl]amino}piperidin-1-yl)prop-2-en-1-one]
0.0012 µM | 0.0981 µM | C=CC(=O)N1CCC[C@@H](Nc2ncnc3[nH]cc(-c4cncc(OC)c4)c23)C1 [Example 24, 1-[(3R)-3-{[5-(5-methoxypyridin-3-yl)-7H-pyrrolo[2,3-d]pyrimidin-4-yl]amino}piperidin-1-yl]prop-2-en-1-one]
0.0002 µM | 0.0161 µM | C=CC(=O)N1C[C@H](Nc2ncnc3[nH]cc(Cl)c23)CC[C@@H]1C [Example 18, 1-((2S,5R)-5-((5-Chloro-7H-pyrrolo[2,3-d]pyrimidin-4-yl)amino)-2-methylpiperidin-1-yl)prop-2-en-1-one]

SMILES | IC50 [1] | IC50 [2]
C=CC(=O)N1CCC(Oc2cnc3[nH]cc(-c4ccc(C#N)nc4)c3n2)CC1 [Example 216, 5-{2-[(1-acryloylpiperidin-4-yl)oxy]-5H-pyrrolo[2,3-b]pyrazin-7-yl}pyridine-2-carbonitrile] | 0.0125 µM | 1.03 µM
